Among the data in patent US5952511A, “Indolin-2-one derivatives” (Chugai Seiyaku Kabushiki Kaisha, priority 1993, dated 1999) are inhibition in vivo and IC50 values, retold here.

Test [1] relates to gastric acid secretion. Description: Inhibitory Activity on Gastric Acid Secretion in Pylorus Ligated Rats (Test Example 2). Type of test: in vivo, rat (Sprague-Dawley, male). Conditions: Rattus norvegicus, intraduodenal, 10 mg/kg, i.d., 4 h. Here is the method: Inhibitory Activity on Gastric Acid Secretion in Pyrolus Ligated Rats
Sprague-Dawley male rats weighing about 200 g were deprived of food for 24 hours while allowed water ad libitum. The abdomen was opened under anesthesia with ethyl ether, the pyrolus ligated, and the abdomen closed. The rats were deprived of food and water for 4 hours until they were surcrified with ethyl ether. The stomach was removed, and gastric juice was collected and measured. The gastric juice was centrifuged at 3000 rpm, and the supernatant was titrated up to pH 7.0 with 0.1N NaOH solution to obtain the acidity of the gastric juice. The amount of the gastric acid output was calculated by multiplying the gastric juice volume by the acidity, and the percent inhibition of acid secretion was obtained according to the following equation. A test compound, suspended in a 3% gum arabic solution, was administered intraduodenally at a dose of 2 ml/kg immediately after the pyrolus ligation.
Inhibition (%)=[(Average amount of gastric acid output in control group--Average amount of gastric acid output in test group)/Average amount of gastric acid secreted […]]×100

Test [2] addresses T1, CCK-B receptors (rat cerebral cortex) (Rattus norvegicus, UniProt P30553).
T1 construct: Cerebral cortex was minced in the same buffer, and homogenized with Polytron; from tissue; host or cells: cerebral cortex membrane fraction of Sprague-Dawley male rats
T1 sequence (P30553 1-452): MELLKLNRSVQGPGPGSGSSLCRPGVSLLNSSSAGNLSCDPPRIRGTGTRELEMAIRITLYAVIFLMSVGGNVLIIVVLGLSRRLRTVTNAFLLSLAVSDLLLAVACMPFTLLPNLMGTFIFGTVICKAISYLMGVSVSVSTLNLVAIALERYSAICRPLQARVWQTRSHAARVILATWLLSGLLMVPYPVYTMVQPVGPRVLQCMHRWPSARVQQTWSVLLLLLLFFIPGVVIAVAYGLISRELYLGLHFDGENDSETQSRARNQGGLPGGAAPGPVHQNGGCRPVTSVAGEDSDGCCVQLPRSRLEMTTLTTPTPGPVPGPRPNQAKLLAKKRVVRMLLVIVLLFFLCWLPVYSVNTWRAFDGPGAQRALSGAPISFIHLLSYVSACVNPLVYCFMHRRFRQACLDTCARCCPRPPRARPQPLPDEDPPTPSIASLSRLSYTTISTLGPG
Description: CCK-B Receptor Binding Test in Rat Cerebral Cortex (Test Example 3). More on the design: species or system rat (Sprague-Dawley, male). Conditions: inhibition of specific 125I-CCK-8 sulfated binding (15 pM), 25° C., 120 min. How it is done: CCK-B Receptor Binding Test in Rat Cerebral Cortex
A rat cortical membrane fraction was prepared in accordance with the method of Chang, et al., Proc. Natl. Acad. Sci., U.S.A., 83, 4923 (1986). Sprague-Dawley male rats were sucrified and the brains were removed and immersed in a 50 mM Tris-HCl buffer (pH 7.4) under ice-cooling, and the cortex was dissected. Cerebral cortex was minced in the same buffer, and homogenized with Polytron. The homogenate was centrifuged at 2,500 g, and the supernatant was further centrifuged at 50,000 g. The pellet was resuspended in a reaction buffer solution (10 mM HEPES, 5 mM MgCl2, 1 mM EGTA, 130 mM NaCl; pH 6.5).
To 150 μl of the resulting rat cerebral cortex suspension were added 20 μl of ^125 I-CCK-8 sulfated (final concentration: 15 pM) and 10 μl of a test compound or a solvent (for total binding) or 1 μM CCK-8 sulfated (for nonspecific binding), and the reaction buffer solution was added there to make 1 ml. The reaction mixture was incubated at 25° C. for 120 minutes, followed by filtration through a GF/B filter (produced by Whatman). The radio-activity of the membrane fraction adsorbed onto the filter was measured with a gamma-counter.
The specific binding to CCK-B receptors was obtained from a difference between the total binding and the nonspecific binding. The IC50 of the test compound in inhibition of specific binding was calculated.

In test [3] the target is T2, gastrin receptors (guinea pig gastric glands) (Cavia porcellus, UniProt H0VZC5).
T2 construct: The gastric glands were isolated from the tissue with a pipette; from tissue; host or cells: isolated gastric glands from gastric mucosa of Hartley male guinea pigs
T2 sequence (H0VZC5 1-426): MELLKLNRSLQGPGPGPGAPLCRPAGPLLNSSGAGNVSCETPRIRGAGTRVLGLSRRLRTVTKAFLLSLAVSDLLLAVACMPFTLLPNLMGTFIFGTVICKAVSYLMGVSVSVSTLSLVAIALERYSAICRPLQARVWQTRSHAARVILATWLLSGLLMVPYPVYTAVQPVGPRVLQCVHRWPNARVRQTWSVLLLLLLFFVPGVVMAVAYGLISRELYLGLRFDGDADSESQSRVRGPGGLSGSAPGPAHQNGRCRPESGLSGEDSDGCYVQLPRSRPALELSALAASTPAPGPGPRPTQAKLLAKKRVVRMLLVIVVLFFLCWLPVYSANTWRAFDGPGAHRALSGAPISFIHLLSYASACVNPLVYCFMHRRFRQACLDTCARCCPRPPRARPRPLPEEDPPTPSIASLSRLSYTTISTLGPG
The test is described as follows: Gastrin Receptor Binding Test in Guinea Pig Gastric Glands (Test Example 1). The following applies: inhibition of specific 125I-gastrin I human binding (22.5 pM), 25° C., 45 min. The arrangement: species or system guinea pig (Hartley, male). How it is done:
Gastrin Receptor Binding Test in Guinea Pig Gastric Glands
Preparation of Gastric Glands:
Guinea pig gastric glands were prepared according to the method of Chang, et al., Biochem. Biophys. Res. Commun., 134, 895 (1986). The gastric mucosa of a Hartley male guinea pig was peeled off. After washing, the mucosa was minced with scissors in buffer A (Eagle's MEM containing 2 mM L-glutamine and 25 mM HEPES; pH 7.4). After washing, the minced tissue was incubated in buffer A containing 0.025% collagenase, 0.01% soy bean trypsin inhibitor, and 0.1% BSA at 37° C. for 60 minutes under 95% O2 and 5% CO2. The gastric glands were isolated from the tissue with a pipette, washed twice with buffer A, and filtered through a mesh. Then, the gastric glands were obtained by centrifugation.
Guinea pig gastric glands were resuspended in buffer B (Hank's solution containing 10 mM HEPES and 0.2% BSA; pH 7.4) (10 ml of buffer B per guinea pig).
To 200 μl of the suspension containing the resuspended isolated gastric glands were added 20 μl of ^125 I-gastrin I human (final concentration: 22.5 pM). Then, 10 μl of a test compound or a solvent (for total binding) or 10 μM Pentagastrin (for nonspecific binding), and buffer B was added there to make a total volume of 1 ml. The reaction mixture was incubated at 25° C. for 45 minutes and then centrifuged at 12000 g. The supernatant was removed by suction, and the radioactivity of the isolated gastric glands was measured with a gamma-counter.
The specific binding of gastrin to gastrin receptors was obtained from a difference between the total binding and the nonspecific binding. The IC50 of the test compound in inhibition of specific binding was calculated.

As to `CCOC(CN1C(=O)C(CC(=O)Nc2ccc(C)cn2)(NC(=O)Nc2cccc(OC)c2)c2ccccc21)OCC` (racemic) [Example 158, (RS)-1-(2,2-Diethoxyethyl)-3-(N'-(3-methoxyphenyl)ureido)-3-((5-methylpyrido-2-yl)aminocarbonylmethyl)indolin-2-one], at 10 mg/kg the inhibition in vivo in test [1] was 66%. Moreover, the half-inhibitory concentration (IC50) in test [2] turned out to be 0.56 nM; in test [3], 1.4 nM.

In turn, `CCOC(CN1C(=O)C(CC(=O)Nc2ccc(OC)nc2)(NC(=O)Nc2ccc(C)cc2)c2ccccc21)OCC` (single isomer, unassigned; (+)) [Example 181, (+)-1-(2,2-Diethoxyethyl)-3-((2-methoxypyrido-5-yl)aminocarbonylmethyl)-3-(N'-(4-methylphenyl)ureido)indolin-2-one] gave an inhibition in vivo at 10 mg/kg in test [1] of 69%. The IC50 in test [2] is 0.78 nM; in test [3], 2.2 nM.

The compound `CCOC(CN1C(=O)C(CC(=O)Nc2ccc(N(C)C)cc2)(NC(=O)Nc2ccc(C)cc2)c2ccccc21)OCC` (single isomer, unassigned; (+)) [Example 180, (+)-1-(2,2-Diethoxyethyl)-3-((4-(N,N-dimethylamino)phenyl)aminocarbonylmethyl)-3-(N'-(4-methylphenyl)ureido)indolin-2-one] gave an inhibition in vivo at 10 mg/kg in test [1] of 73%. The half-inhibitory concentration (IC50) is 0.36 nM in test [2] and 4.6 nM in test [3].

The compound `Cc1ccc(NC(=O)CC2(NC(=O)Nc3ccc(C)cc3)C(=O)N(CCc3ccccc3)c3ccccc32)cc1` (racemic) [Example 66, (RS)-3-((4-Methylphenyl)aminocarbonylmethyl)-3-(N'-(4-methylphenyl)ureido)-1-(2-phenylethyl)indolin-2-one] registered a half-inhibitory concentration (IC50) in test [2] of 0.76 nM.

In turn, `CCOC(CN1C(=O)C(CC(=O)Nc2ccc(C)cc2)(NC(=O)Nc2ccc(C)cc2)c2ccccc21)OCC` (single isomer, unassigned; (+)) [Example 174, (+)-1-(2,2-Diethoxyethyl)-3-(4-methylphenyl)aminocarbonylmethyl-3-(N'-(4-methylphenyl)ureido)indolin-2-one] returned an inhibition in vivo at 10 mg/kg in test [1] of 70%. For the same compound, the IC50 in test [2] came to 0.42 nM; in test [3], 0.54 nM.

Take `CCOC(CN1C(=O)C(NC(=O)Nc2ccc(C)cc2)(NC(=O)Nc2ccc(C)cc2)c2ccccc21)OC` (racemic) [Example 7, (RS)-1-(2-Ethoxy-2-methoxyethyl)-3,3-bis(N'-(4-methylphenyl)ureido)indolin-2-one]: the half-maximal inhibitory concentration (IC50) in test [2] worked out at 0.07 nM.

In test [1], `CCOC(CN1C(=O)C(CC(=O)Nc2ccc(C)cc2)(NC(=O)Nc2ccc(C#N)cc2)c2ccccc21)OCC` (racemic) [Example 92, (RS)-3-(N'-(4-Cyanophenyl)ureido)-1-(2,2-diethoxyethyl)-3-((4-methylphenyl)aminocarbonylmethyl)indolin-2-one] came in with an inhibition in vivo at 10 mg/kg of 57%. Also, the concentration for half-maximal inhibition (IC50) in test [2] was 0.9 nM; in test [3], 4.3 nM.

As to `CCOC(CN1C(=O)C(CC(=O)Nc2cccc(C)c2)(NC(=O)Nc2ccc(C)cc2)c2ccccc21)OCC` (racemic) [Example 111, (RS)-1-(2,2-Diethoxyethyl)-3-((3-methylphenyl)aminocarbonylmethyl)-3-(N'-(4-methylphenyl)ureido)indolin-2-one], at 10 mg/kg the inhibition in vivo in test [1] was 69%. Besides, the IC50 worked out at 0.35 nM in test [2] and 5.1 nM in test [3].

As for `CCOC(CN1C(=O)C(CC(=O)Nc2ccc(C)cn2)(NC(=O)Nc2ccc(C)cc2)c2ccccc21)OCC` (racemic) [Example 138, (RS)-1-(2,2-Diethoxyethyl)-3-(N'-(4-methylphenyl)ureido)-3-((5-methylpyrido-2-yl)aminocarbonylmethyl)indolin-2-one], the inhibition in vivo at 10 mg/kg in test [1] stood at 69%. For the same compound, the IC50 in test [2] was found to be 0.5 nM; in test [3] it was 2.2 nM.

In turn, `Cc1ccc(NC(=O)CC2(NC(=O)Nc3ccc(C)cc3)C(=O)N(Cc3ccccn3)c3ccccc32)cc1` (racemic) [Example 65, (RS)-3-((4-Methylhenyl)aminocarbonylmethyl)-3-(N'-(4-methylphenyl)ureido)-1-(2-pyridylmethyl)indolin-2-one] had a half-inhibitory concentration (IC50) in test [2] of 0.76 nM.

Compound `CCOC(CN1C(=O)C(CC(=O)Nc2ccc(Cl)cc2)(NC(=O)Nc2cccc(OC)c2)c2ccccc21)OCC` (racemic) [Example 149, (RS)-3-((4-Chlorophenyl)aminocarbonylmethyl)-1-(2,2-diethoxyethyl)-3-(N'-(3-methoxyphenyl)ureido)indolin-2-one] had an inhibition in vivo at 10 mg/kg in test [1] of 69%. In addition, in test [3], the 50% inhibitory concentration (IC50) was determined as 0.93 nM.

For the compound `CCOC(CN1C(=O)C(NC(=O)Nc2ccc(C)cc2)(NC(=O)Nc2ccc(C)cc2)c2ccccc21)OCC` [Example 10, 1-(2,2-Diethoxyethyl)-3,3-bis(N'-(4-methylphenyl)ureido)indolin-2-one], the inhibition in vivo at 10 mg/kg in test [1] came out at 59%. Besides, in test [3], the IC50 was 2.5 nM.

`CCOC(CN1C(=O)C(CC(=O)Nc2ccc(Cl)cc2)(NC(=O)Nc2ccc(Cl)cc2)c2ccccc21)OCC` (racemic) [Example 168, (RS)-3-((4-Chlorophenyl)aminocarbonylmethyl)-3-(N'-(4-chlorophenyl)ureido)-1-(2,2-diethoxyethyl)indolin-2-one]: the inhibition in vivo at 10 mg/kg in test [1] is 61%. Also, the IC50 in test [3] is 2.6 nM.

`Cc1ccc(NC(=O)CC2(NC(=O)Nc3ccc(C)cc3)C(=O)N(Cc3ccccc3)c3ccccc32)cc1` (racemic) [Example 62, (RS)-1-Benzyl-3-((4-methylphenyl)aminocarbonylmethyl)-3-(N'-(4-methylphenyl)ureido)indolin-2-one] showed a half-inhibitory concentration (IC50) in test [2] of 1.2 nM.

One may read the inhibition in vivo as the change of the read-out against control, counted positive when it falls. A low value points to a weak effect. A word on the IC50: it is the concentration that inhibits the measured activity by half.
